Laboratory results from patent US8158828B2, “Nuclear receptor binding agents” (priority 2005, dated 2012).
pEC50, pIC50: −log10 of the molar value. Like-named read-outs stand apart in the source and are kept apart here. Each block holds one molecule with its values, some of them ahead of it.

How the values were obtained:
[1] = target: T1, ER-α (Rattus norvegicus, UniProt P06211); test: ER-α transactivation, ERE-LUC in COS or 293 cells; type: cell-based; set-up: % estardiol activity, ER-α: dose or concentration left out as unconfirmed; settings: for pEC50: ER alpha agonists; for pIC50: ER alpha antagonists
T1 sequence (P06211 1-600): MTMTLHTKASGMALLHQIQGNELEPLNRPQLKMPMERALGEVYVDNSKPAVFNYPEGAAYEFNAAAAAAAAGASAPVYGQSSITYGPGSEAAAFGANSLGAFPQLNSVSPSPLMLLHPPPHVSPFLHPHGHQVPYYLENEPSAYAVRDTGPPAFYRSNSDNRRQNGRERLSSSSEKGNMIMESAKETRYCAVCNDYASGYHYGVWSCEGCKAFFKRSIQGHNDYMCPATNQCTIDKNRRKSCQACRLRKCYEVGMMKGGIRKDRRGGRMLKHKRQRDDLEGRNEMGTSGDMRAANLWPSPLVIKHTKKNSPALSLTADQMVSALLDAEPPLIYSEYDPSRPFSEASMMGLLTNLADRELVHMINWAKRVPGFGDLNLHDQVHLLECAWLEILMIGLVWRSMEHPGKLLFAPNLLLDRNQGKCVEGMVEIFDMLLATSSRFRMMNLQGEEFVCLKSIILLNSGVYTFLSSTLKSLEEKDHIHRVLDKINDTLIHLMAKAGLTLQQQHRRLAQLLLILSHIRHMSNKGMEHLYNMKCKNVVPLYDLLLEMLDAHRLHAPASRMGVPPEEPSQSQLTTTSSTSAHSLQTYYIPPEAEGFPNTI
Protocol: FIG. 1: Effects of the indicated compounds on ER-α transactivation. COS or 293 cells plated in DME without phenol red+10% charcoal stripped fetal bovine serum (csFBS) at 90,000 cells per well of 24 well plates were transfected with 0.25 μg ERE-LUC, 0.02 μg CMV-LUC (Renilla) and 25 ng of ER-α by lipofectamine. Twenty four hours after transfection, the cells were treated as indicated in the figure, harvested 48 hrs after transfection and were assayed for firefly and renilla luciferase.
(§1) FIG. 5: Effect of the indicated compounds on ER-α transactivation. COS or 293 cells plated in DME without phenol red+10% csFBS at 90,000 cells per well of a 24 well plate were transfected with 0.25 μg ERE-LUC, 0.02 μg CMV-LUC (Renilla) and 5 ng of ER-α by lipofectamine. Twenty four hours after transfection, the cells were treated as indicated in the figure, harvested 48 hrs after transfection and were assayed for firefly and renilla luciferase.
as §1, with “FIG. 9:” for “FIG. 5:”, “csFBS” for “csFBS at 90,000 cells”, “and 25” for “and 5”
Also 25 ng of ER-α (FIGS. 1, 5, and 9), 50 ng of ER-β (FIGS. 2, 6 and 10) or 12.5 ng of AR (FIG. 3) were introduced by lipofectamine. All the receptors were cloned from rat tissue into the PCR3.1 vector backbone. […] Cells were harvested 48 hrs after transfection, and assayed for firefly and Renilla luciferase activity.
Also 25 ng of ER-α), 50 ng of ER-β or 12.5 ng of AR were introduced by lipofectamine. All the receptors were cloned from rat tissue into the PCR3.1 vector backbone. […] Cells were harvested 48 hrs after transfection, and assayed for firefly and Renilla luciferase activity.

[2] = target: T2, ER-β (Rattus norvegicus, UniProt Q62986); test: ER-β transactivation, ERE-LUC in COS or 293 cells; type: cell-based; set-up: % estardiol activity, ER-β: dose or concentration left out as unconfirmed; settings: for ER-β LUC expression, compound alone: COS or 293 cells
T2 construct: expressed in transfected cells; host or cells: COS or 293 cells
Protocol: as §1, with “FIG. 2:” for “FIG. 5:”, “on ER-β” for “on ER-α”, “and 50” for “and 5”, “of ER-β” for “of ER-α”
as §1, with “FIG. 6:” for “FIG. 5:”, “on ER-β” for “on ER-α”, “and 50” for “and 5”, “of ER-β” for “of ER-α”, “and” for “and were”
as §1, with “FIG. 10:” for “FIG. 5:”, “on ER-β” for “on ER-α”, “in DME+10%” for “in DME without phenol red+10%”, “and 50” for “and 5”, “of ER-β” for “of ER-α”
(§2) All the receptors were cloned from rat tissue into the PCR3.1 vector backbone. […] Cells were harvested 48 hrs after transfection, and assayed for firefly and Renilla luciferase activity.
as §2

[3] = Metabolic stability in human liver microsomes; settings: 1 μM substrate, 0.5 mg/mL microsomes
Protocol: Each substrate or reference control was dissolved at a concentration of 10 mM in DMSO, from which a 5 μM spiking solution was prepared by dilution in water. Substrates (1 μM) were incubated in the presence of human liver microsomes (Xenotech LLC, Kansas City Mo.) at 0.5 mg/mL fortified with an NADPH regenerating system at 37° C. and pH 7.4. The NADPH regenerating system consisted of glucose-6-phosphate dehydrogenase (1 units/mL) in 0.05M K2HPO4. Duplicate incubations were performed in 96-well polypropylene cluster tubes in a final volume of 250 μL per reaction. At 0, 2, 4, 6, 10, 30, and 60 minutes a stop solution (300 μL acetonitrile) was added to aliquots of the reaction mixture. Precipitated protein was removed by centrifugation (3000 rpm for 15 minutes) and the supernatants were transferred to clean 96-well plates for analysis.
The samples were injected onto a Phenomenex Luna hexylphenyl 50×2 mm i.d. 5 uM, column fitted with a guard column. An isocratic mobile phase consisting of 50% acetonitrile and 0.1% formic acid in water was used at a flow rate of 0.3 mL/min. The protonated molecular ion (M+H)^+ of the analyte was monitored by MDS/Sciex API 4000QTrap triple quadrupole mass spectrometer using electrospray positive mode ionization with a temperature of 500° C. and a spray voltage of 4000V. Total analysis time was 1.5 min per sample.
Metabolic stability was defined as the amount of substrate metabolized by the incubation with hepatic microsomes and expressed as a percentage of the initial amount of substrate (% remaining) based on peak area. Initial substrate concentration for each analyte was 1 μM. The initial peak area of each substrate was determined at time zero and metabolic stability was assessed based on the change in analyte peak area from time 0 min to a single fixed timepoint for each sample (2-60 min, representative timepoints are shown in Table 2 below).

[4] = ER beta agonists, read-out: EC50 (ER-β)

T2 sequence (Q62986 whole entry): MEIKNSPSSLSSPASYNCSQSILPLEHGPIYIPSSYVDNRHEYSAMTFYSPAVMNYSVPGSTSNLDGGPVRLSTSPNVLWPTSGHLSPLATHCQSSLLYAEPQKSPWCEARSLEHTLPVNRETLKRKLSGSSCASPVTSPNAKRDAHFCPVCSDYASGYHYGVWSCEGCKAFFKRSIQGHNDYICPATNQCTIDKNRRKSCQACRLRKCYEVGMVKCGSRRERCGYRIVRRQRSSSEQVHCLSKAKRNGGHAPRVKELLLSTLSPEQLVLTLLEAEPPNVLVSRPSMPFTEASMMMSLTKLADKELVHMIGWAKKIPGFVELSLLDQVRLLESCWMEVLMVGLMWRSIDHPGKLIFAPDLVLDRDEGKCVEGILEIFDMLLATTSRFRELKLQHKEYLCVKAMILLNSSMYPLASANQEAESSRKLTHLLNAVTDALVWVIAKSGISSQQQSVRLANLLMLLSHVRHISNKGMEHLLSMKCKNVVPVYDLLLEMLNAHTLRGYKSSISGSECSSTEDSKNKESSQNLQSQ

SMILES: O=C(c1cccc(O)c1)N(c1ccc(O)cc1)c1ccc(O)cc1 [Compound 3b, 3-hydroxy-N-bis-(4-hydroxyphenyl)-benzamide]
pEC50 [1]: 8.00

SMILES: O=C(c1ccccc1)N(c1ccccc1)c1ccc(O)cc1 [Compound 3g, N-(4-hydroxyphenyl)-N-phenyl-benzamide]
% estardiol activity, ER-α [1]: 62.5% | ER-β LUC expression, compound alone [2]: most potent in stimulating ER-β

SMILES: O=C(c1ccc(O)cc1)N(c1ccccc1)c1ccc(O)cc1 [Compound 3i, 4-hydroxy-N-(4-hydroxyphenyl)-N-phenyl-benzamide]
% estardiol activity, ER-α [1]: 77.8% | ER-α activity (luciferase expression), compound alone ([1]; COS or 293 cells): most potent in stimulating ER-α | ER-β LUC expression, compound alone [2]: most potent in stimulating ER-β

SMILES: O=C(c1ccc(O)cc1)N(c1ccccc1)c1cccc(O)c1 [Compound 3j, 4-hydroxy-N-(3-hydroxyphenyl)-N-phenyl-benzamide]
% estardiol activity, ER-α [1]: 62%

SMILES: O=C(c1ccc(F)cc1)N(c1ccc(O)cc1)c1ccc(O)cc1 [Compound 3k, N,N-bis(4-hydroxyphenyl)-4-fluoro-benzamide]
pEC50 [1]: 7.92 | % Remaining 0 min ([3]; 0 min): 100% | % Remaining 10 min ([3]; 10 min): 119% | % Remaining 30 min ([3]; 30 min): 120% | % Remaining 60 min ([3]; 60 min): 94%

SMILES: O=C(c1ccc(O)cc1)N(c1ccc(O)cc1)c1ccc(-c2ccccc2)cc1 [Compound 3v, N-biphenyl-4-yl-4-hydroxy-N-(4-hydroxyphenyl)-benzamide]
pEC50 [1]: 7.65

SMILES: Cl.O=C(c1cccc(OCCN2CCCCC2)c1)N(c1ccccc1)c1ccccc1 [Compound 4d, N,N-diphenyl-[3-(2-piperidinylethoxy)]-benzamide hydrochloride]
% estardiol activity, ER-α [1]: 16.8% | % estardiol activity, ER-β [2]: 30.7%

SMILES: O=C(c1ccc(O)c(F)c1)N(c1ccccc1)c1ccc(O)cc1 [Compound 10f, 3-fluoro-4-hydroxy-N-(4-hydroxyphenyl)-N-phenylbenzamide]
% estardiol activity, ER-α [1]: 85% | pEC50 [2]: 7.38

SMILES: Cc1cccc(C(=O)N(c2ccc(O)cc2)c2ccc(O)cc2)c1C [Compound 10j, N,N-bis(4-hydroxyphenyl)-2,3-dimethylbenzamide]
pIC50 [2]: 7.70

SMILES: CCCc1ccc(C(=O)N(c2ccc(O)cc2)c2ccc(O)cc2)cc1 [Compound 10l, N,N-bis(4-hydroxyphenyl)-4-propylbenzamide]
% estardiol activity, ER-α [1]: 32% | pEC50 [2]: 7.57

SMILES: Cc1cccc(CN(c2ccc(O)cc2)c2ccc(O)cc2)c1C [Compound 10t, 4,4′-(2,3-dimethyl-benzylazanediyl)diphenol]
pIC50 [2]: 7.77

The next lines start with results.

% estardiol activity, ER-α [1]: 21.4% | pEC50 [2, 4]: 7.07
SMILES: Cc1ccc(C(=O)N(c2ccc(O)cc2)c2ccc(O)cc2)cc1C [Compound 10d, N,N-bis(4-hydroxyphenyl)-3,4-dimethylbenzamide]

pIC50 [1]: > 8.00
SMILES: O=C(c1ccc(O)c(O)c1)N(c1ccc(O)cc1)c1ccc(O)cc1 [Compound 10m, 3,4-dihydroxy-N,N-bis(4-hydroxyphenyl)-benzamide]

pIC50 ([2]; ER beta antagonist, read-out: IC50 (ER-β)): 7.33
SMILES: Cc1cc(C(=O)N(c2ccc(O)cc2)c2ccc(O)cc2)ccc1O [Compound 10n, 4-hydroxy-N,N-bis(4-hydroxyphenyl)-3-methylbenzamide]

% estardiol activity, ER-α [1]: 12%
SMILES: CCCc1ccc(C(=O)N(c2ccc(O)cc2)c2ccc(OCCN3CCCCC3)cc2)cc1 [Compound 10o, N-(4-hydroxyphenyl)-N-(4-(2-(piperidin-1-yl)ethoxy)phenyl)-4-propylbenzamide]
inhibition of estradiol (E2) induced ER-α activity (luciferase expression) ([1]; COS or 293 cells, with estrogen): inhibited estrogen stimulated luciferase expression

% estardiol activity, ER-α [1]: 21.9%
SMILES: O=C(c1ccc(O)cc1)N(c1ccc(O)cc1)C1CCCCC1 [Compound 10w, N-cyclohexyl-4-hydroxy-N-(4-hydroxyphenyl)benzamide]

pEC50 [1]: 7.80
SMILES: Oc1ccc(CN(c2ccc(O)cc2)c2ccc(F)cc2)cc1 [Compound 10x, 4-((4-fluorophenyl)(4-hydroxybenzyl)amino)phenol]

pIC50 [1]: 7.16
SMILES: O=C(c1cccc2ccccc12)N(c1ccc(O)cc1)c1ccc(OCCN2CCCCC2)cc1 [Compound 11f, N-(4-hydroxyphenyl)-N-(4-(2-(piperidin-1-yl)ethoxy)phenyl)-1-naphthamide]

pIC50 [1]: 7.80
SMILES: O=C(c1cccc(F)c1)N(c1ccc(O)cc1)c1ccc(OCCN2CCCCC2)cc1 [Compound 11g, 3-fluoro-N-(4-hydroxyphenyl)-N-(4-(2-(piperidin-1-yl)ethoxy)phenyl)benzamide]

pEC50 [2, 4]: > 8.00
SMILES: CCCCCc1ccc(C(=O)N(c2ccc(O)cc2)c2ccc(O)cc2)cc1 [Compound 11p, N,N-bis(4-hydroxyphenyl)-4-pentylbenzamide]
